# According to patent US5677331A, “Antimalarial compositions” (priority 1990, dated 1997):
# Assays:
# [1] = test system: chloroquine-resistant strains of Plasmodium falciparum; conditions: in vivo; cited from earlier work
# P. Berghei K173 N-strain = assay: blood schizontocidal action, 4-day test according to Peters; assay type: in vivo, P. Berghei in mice; conditions: component alone, oral, mice, mean of three experiments
# Method: The synergism between the components benflumetol and artemether is determined according to the method of Peters: Am. Trop. Med. Parasitol Vol. 62, pg. 488-492 (1968).
# Blood schizintocidal action of artemether (A) and benflumetol (B) admimistered orally in varying proportions to mice infected with P. Berghei K173 N-strain in "4-day test" according to Peters (Mean values of three experiments)
# [2] = toxicity and tolerability of benflumetol (general statement)
# Text: The dose of the active component benflumetol (I) as contained in the pharmaceutical composition may vary within wide limits and depends on the condition of the patient and the time period elapsed after the outbreak of the disease.
# protozoa = assay: rate of killing protozoa in vivo in mice; conditions: 20× ED90 intragastrically
# Method: The rate of killing protozoa was determined in-vivo. When the protozoa concentration in the blood of mice increased to high density, a multiple dose equivalent, i.e. 20× ED90 was given intragastrically. The rate of decrease of protozoae in blood was observed uninterruptedly after administration.
# [3] = test system: pernicious malaria protozoae; assay: clinical therapeutic effect of individual components compared to combination; assay type: in vivo, patients (human); conditions: oral, 3 days and 4 doses; for time for disappearance of protozoae: average; for rate of decrease in protozoae at 24 hours: 20 patients per group
# Text: Determination of therapeutic effect of individual components as compared to synergistic combination: Two groups of patients were selected for oral administration and the 3 days and 4 doses treatment scheme. There were 20 patients with pernicious malaria in each group. The therapeutic effect of the combination and artemether and benflumetol singly were compared separately. The doses of both drugs in individual administration were about the same as in the complex prescription. The parameters determined were: 1) the rate for decrease of protozoa at 24 h post administrationem; 2) average time for disappearance of protozoae; 3) average time for fever subsidence; and 4) cure rate at the 28th day.
SMILES,activity against chloroquine-resistant strains of Plasmodium falciparum in man [1],Effective dose of first component ED50 (P. Berghei K173 N-strain) [mg/kg/day],Effective dose of first component ED90 (P. Berghei K173 N-strain) [mg/kg/day],tolerability [2],toxicity [2],timespan required for 90% decrease of the protozoae (protozoa) [h],time for disappearance of protozoae [3] [h],28-day cure rate [3] [%],average time for fever subsidence [3] [h],rate of decrease in protozoae at 24 hours [3] [%],killing of protozoae (protozoa; before their number increased again)
C[C@@H]1CC[C@H]2[C@@H](C)C(=O)O[C@@H]3O[C@@]4(C)CC[C@@H]1[C@]32OO4 [Artemisinine],active against chloroquine-resistant strains of Plasmodium falciparum in man,,,,,,,,,,
CCCCN(CCCC)CC(O)c1cc(Cl)cc2c1-c1ccc(Cl)cc1C2=Cc1ccc(Cl)cc1 (centres unmarked) [benflumetol],,1.30,2.70,high tolerability,low toxicity,64.3,68.4,65,40,74.5,
CO[C@H]1O[C@@H]2O[C@@]3(C)CC[C@H]4[C@H](C)CC[C@@H]([C@H]1C)[C@@]24OO3 [artemether],,2.00,5.30,,,,38.7,45,19.7,95.1,could not kill protozoae by more than 90% before their number increased again
